Laboratory results: ChEMBL document CHEMBL1201862, “PubChem BioAssay data set” (2004)
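48-hour exposure; five concentrations; linearly interpolated endpoints. The concentration for 50% growth inhibition is given as GI50.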 Active and inactive are the calls of the source. No stated cut-off is given here; in the data, active = GI50 up to about 1.1 µM and inactive = higher. Bridge positions count the residues as written; N and C are the ends. Square brackets hold non-standard residues; d marks the D form. Peptide text beside a SMILES is read from it. * marks the point of attachment. Cbz = O=C(OCc1ccccc1)*; Dab = NCC[CH](N)C(=O)O; Bn = c1ccc(C*)cc1

Experiments:
Test in all cases: NCI anticancer screen, dose series, 48 h
UACC-62 = system: UACC-62
EKVX = system: EKVX
NCI-H226 = system: NCI-H226
SNB-19 = system: SNB-19
RXF 393 = system: RXF 393
OVCAR-8 = system: OVCAR-8
K562 = system: K562
SNB-75 = system: SNB-75
HL-60 = system: HL-60
UACC-257 = system: UACC-257
HCT-116 = system: HCT-116
SK-MEL-5 = system: SK-MEL-5
RPMI-8226 = system: RPMI-8226
SK-MEL-2 = system: SK-MEL-2
UO-31 = system: UO-31
OVCAR-3 = system: OVCAR-3
A498 = system: A498
SK-OV-3 = system: SK-OV-3
DU-145 = system: DU-145
MDA-MB-435 = system: MDA-MB-435

Measured: GI50

O=c1ccn(C2(CO)C=C(CO)C(O)C2O)c(=O)[nH]1 (stereo unspecified)
inactive: UACC-62 > 25.7 µM | EKVX > 25.7 µM | NCI-H226 > 25.7 µM | SNB-19 > 25.7 µM | RXF 393 > 25.7 µM | OVCAR-8 > 25.7 µM | K562 > 25.7 µM | SNB-75 > 25.7 µM | HL-60 > 25.7 µM | UACC-257 > 25.7 µM | HCT-116 > 25.7 µM | SK-MEL-5 > 25.7 µM | RPMI-8226 > 25.7 µM | SK-MEL-2 > 25.7 µM | UO-31 > 25.7 µM | OVCAR-3 > 25.7 µM | A498 > 25.7 µM | SK-OV-3 > 25.7 µM

COc1cc(/C=C2\CCC(C)(CN(C)C)C2=O)cc(OC)c1OC (stereo unspecified)
inactive: UACC-62 70.5 µM | EKVX > 58.3 µM | NCI-H226 > 100 µM | SNB-19 > 100 µM | RXF 393 > 100 µM | OVCAR-8 > 100 µM | K562 63.7 µM | SNB-75 > 100 µM | HL-60 1.57 µM | UACC-257 > 100 µM | HCT-116 > 79.3 µM | SK-MEL-5 > 93.3 µM | RPMI-8226 40.8 µM | SK-MEL-2 > 100 µM | UO-31 > 100 µM | OVCAR-3 > 100 µM | A498 > 100 µM | SK-OV-3 > 100 µM

O=c1oc2c/c(=C\c3ccc([N+](=O)[O-])cc3)c(=O)c3cccc1c3-2
inactive: UACC-62 > 100 µM | EKVX > 100 µM | SNB-19 > 100 µM | OVCAR-8 30.8 µM | K562 > 100 µM | SNB-75 22 µM | HL-60 > 100 µM | UACC-257 > 100 µM | HCT-116 > 100 µM | SK-MEL-5 > 100 µM | RPMI-8226 > 100 µM | SK-MEL-2 > 100 µM | UO-31 > 100 µM | DU-145 > 100 µM | MDA-MB-435 > 100 µM | OVCAR-3 48.5 µM | SK-OV-3 > 100 µM

C1CCN(C2OC3C(COC3N3CCCCC3)OC2OC2CCO[C@@H]2N2CCCCC2)CC1 (stereo partly specified)
inactive: UACC-62 13.4 µM | EKVX 33.8 µM | NCI-H226 20 µM | SNB-19 36.2 µM | RXF 393 8.18 µM | OVCAR-8 17.5 µM | K562 28.4 µM | SNB-75 9.98 µM | HL-60 8.47 µM | UACC-257 20.8 µM | HCT-116 34.7 µM | SK-MEL-5 25.2 µM | RPMI-8226 17.9 µM | SK-MEL-2 20.8 µM | UO-31 44.5 µM | OVCAR-3 24.8 µM | A498 34.1 µM | SK-OV-3 32.6 µM

Cn1cc(NC(=O)Nc2cc(C(=O)Nc3cc(C(=O)Nc4ccc5cc(S(=O)(=O)O)cc(S(=O)(=O)O)c5c4)n(C)c3)n(C)c2)cc1C(=O)Nc1cc(C(=O)Nc2ccc3cc(S(=O)(=O)O)cc(S(=O)(=O)O)c3c2)n(C)c1
inactive: UACC-62 > 100 µM | EKVX 38.5 µM | NCI-H226 > 100 µM | SNB-19 > 100 µM | RXF 393 > 100 µM | OVCAR-8 > 100 µM | K562 > 100 µM | SNB-75 82 µM | HL-60 > 100 µM | UACC-257 > 100 µM | HCT-116 > 100 µM | SK-MEL-5 > 100 µM | RPMI-8226 > 100 µM | UO-31 > 100 µM | DU-145 > 100 µM | MDA-MB-435 > 100 µM | OVCAR-3 84.3 µM | SK-OV-3 > 100 µM

O=C1CCCn2c(nc3ccccc32)N1
inactive: UACC-62 > 100 µM | EKVX > 100 µM | NCI-H226 > 100 µM | SNB-19 > 100 µM | RXF 393 > 100 µM | OVCAR-8 > 100 µM | K562 > 100 µM | SNB-75 > 100 µM | UACC-257 > 100 µM | HCT-116 > 100 µM | SK-MEL-5 > 100 µM | RPMI-8226 > 100 µM | SK-MEL-2 > 100 µM | UO-31 > 100 µM | MDA-MB-435 > 100 µM | OVCAR-3 > 100 µM | A498 > 100 µM | SK-OV-3 > 100 µM

COc1ccc(N2C(=O)C(C#N)=C(SC)C(C#N)C2=O)cc1 (stereo unspecified)
inactive: UACC-62 > 100 µM | EKVX > 100 µM | NCI-H226 > 100 µM | SNB-19 66.5 µM | RXF 393 > 100 µM | OVCAR-8 > 100 µM | K562 > 100 µM | SNB-75 47.1 µM | UACC-257 > 100 µM | HCT-116 > 100 µM | SK-MEL-5 > 100 µM | SK-MEL-2 > 100 µM | MDA-MB-435 > 100 µM | A498 > 100 µM | SK-OV-3 > 100 µM

N#Cc1cccc(/C=N/C23CC4CC(CC(C4)C2)C3)c1
inactive: UACC-62 > 100 µM | EKVX > 100 µM | NCI-H226 > 100 µM | SNB-19 > 100 µM | RXF 393 > 100 µM | OVCAR-8 > 100 µM | K562 38.4 µM | SNB-75 > 10 µM | HL-60 21.3 µM | UACC-257 > 100 µM | HCT-116 57.3 µM | SK-MEL-5 > 10 µM | RPMI-8226 52.2 µM | SK-MEL-2 > 100 µM | UO-31 > 100 µM | OVCAR-3 > 100 µM | A498 > 100 µM | SK-OV-3 > 100 µM

CON1C(=O)C2(CCCCC2)C(=O)C12C=CC(C)CC2 (stereo unspecified)
inactive: UACC-62 > 100 µM | EKVX 48.2 µM | NCI-H226 76.6 µM | SNB-19 > 100 µM | RXF 393 30.7 µM | OVCAR-8 > 100 µM | K562 85.5 µM | SNB-75 > 100 µM | HL-60 49.5 µM | UACC-257 69.8 µM | SK-MEL-5 38 µM | RPMI-8226 72.3 µM | SK-MEL-2 > 100 µM | UO-31 47.4 µM | OVCAR-3 > 100 µM | A498 > 100 µM | SK-OV-3 > 100 µM

Nc1ncnc2c1ncn2CC(O)CO (stereo unspecified)
inactive: UACC-62 > 100 µM | EKVX > 100 µM | NCI-H226 > 100 µM | SNB-19 > 100 µM | RXF 393 > 100 µM | OVCAR-8 > 100 µM | K562 > 100 µM | SNB-75 > 100 µM | HL-60 > 100 µM | UACC-257 > 100 µM | HCT-116 > 100 µM | SK-MEL-5 > 100 µM | RPMI-8226 > 100 µM | SK-MEL-2 > 100 µM | UO-31 > 100 µM | OVCAR-3 > 100 µM | A498 > 100 µM | SK-OV-3 > 100 µM

CCCCCCCCCCCC(=O)OCC1OC(n2cc(F)c(=O)[nH]c2=O)C(N)C(O)C1O (stereo unspecified)
inactive: UACC-62 42 µM | EKVX > 100 µM | NCI-H226 > 100 µM | SNB-19 57.9 µM | RXF 393 > 100 µM | OVCAR-8 73.5 µM | K562 32.2 µM | SNB-75 > 100 µM | HL-60 38.9 µM | UACC-257 > 100 µM | HCT-116 88.1 µM | SK-MEL-5 > 100 µM | RPMI-8226 > 100 µM | SK-MEL-2 > 100 µM | UO-31 > 100 µM | OVCAR-3 > 100 µM | A498 > 100 µM | SK-OV-3 > 100 µM

O=C1C2Cc3ccccc3CN2C(=O)N1CN1CCN(CN2C(=O)C3Cc4ccccc4CN3C2=O)CC1 (stereo unspecified)
inactive: UACC-62 > 100 µM | EKVX > 100 µM | NCI-H226 > 100 µM | SNB-19 > 100 µM | RXF 393 > 100 µM | OVCAR-8 > 100 µM | K562 > 100 µM | SNB-75 > 100 µM | HL-60 > 100 µM | UACC-257 > 100 µM | SK-MEL-5 > 100 µM | RPMI-8226 > 100 µM | SK-MEL-2 > 100 µM | UO-31 > 100 µM | OVCAR-3 > 100 µM | A498 > 100 µM | SK-OV-3 > 100 µM

CC(C)CC1NC(=O)C(Cc2ccccc2)NC(=O)C(Cc2ccccc2)NC(=O)C(NC(=O)C(Cc2ccc(OCc3ccccc3)cc2)NC(=O)OCc2ccccc2)CCNC1=O (stereo unspecified) (Cbz-Y(Bn)[Dab]FFL; lactam 2-C; configuration not given here)
inactive: UACC-62 8.47 µM | EKVX > 100 µM | NCI-H226 > 100 µM | SNB-19 > 100 µM | RXF 393 > 100 µM | OVCAR-8 > 100 µM | K562 > 100 µM | HL-60 > 100 µM | UACC-257 32.1 µM | HCT-116 > 100 µM | SK-MEL-5 76.4 µM | RPMI-8226 > 100 µM | DU-145 > 100 µM | MDA-MB-435 30.4 µM | OVCAR-3 > 100 µM | SK-OV-3 > 100 µM

C/C(=N\N(C)C)C(CN1CCCCC1)C(c1ccccc1)c1c(O)c2ccccc2oc1=O (stereo unspecified)
inactive: UACC-62 80.4 µM | EKVX > 100 µM | NCI-H226 37.5 µM | SNB-19 > 100 µM | RXF 393 > 100 µM | OVCAR-8 > 100 µM | K562 > 100 µM | SNB-75 28.3 µM | HL-60 > 100 µM | UACC-257 > 100 µM | HCT-116 > 100 µM | SK-MEL-5 > 100 µM | RPMI-8226 > 100 µM | SK-MEL-2 > 100 µM | UO-31 32.6 µM | OVCAR-3 > 100 µM | A498 > 100 µM | SK-OV-3 97.5 µM

CC1=C(C(=O)Nc2ccc([N+](=O)[O-])cc2)C(c2cccc([N+](=O)[O-])c2)C(C(=O)Nc2ccc([N+](=O)[O-])cc2)=C(C)N1
inactive: UACC-62 5.28 µM | EKVX 48.2 µM | NCI-H226 58.3 µM | SNB-19 52.7 µM | RXF 393 16.2 µM | OVCAR-8 17.8 µM | K562 9.93 µM | SNB-75 23.7 µM | HL-60 16.4 µM | UACC-257 16 µM | HCT-116 5.97 µM | RPMI-8226 7.78 µM | SK-MEL-2 33.1 µM | UO-31 > 100 µM | OVCAR-3 44.5 µM | A498 32.8 µM | SK-OV-3 8.45 µM
